Literature values in patent US9597409B2, “Methods of treating cancer” (Abraxis BioScience, LLC, priority 2010, dated 2017).

System: patients with locally advanced or metastatic NSCLC
Settings: single agents commonly used to treat NSCLC

Structure (SMILES): CCC1=C[C@@H]2CN(C1)Cc1c([nH]c3ccccc13)[C@@](C(=O)OC)(c1cc3c(cc1OC)N(C)[C@H]1[C@@](O)(C(=O)OC)[C@H](OC(C)=O)[C@]4(CC)C=CCN5CC[C@]31[C@@H]54)C2 [vinorelbine]
- response rate (RR): 29.4%
